This note sets out measurements from patent publication US12643871B2, “Aryl formamide compound containing chiral sulfur oxide or salt thereof, preparation method, herbicidal composition and use thereof” (Qingdao Kingagroot Chemical Compound Co., Ltd., priority 2019, dated 2026).

Common to all, as to experiment: Weeding effect in post-emergence stage
Format in all cases: in vivo
What all share (conditions): 250 g/ha; 2 leaf stage; 15 days after application; fresh weight control rate

One test concerns Abutilon theophrasti. The procedure, abridged: (§1)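 Activity graded 0 (<5%) to 5 (>85%) from fresh-weight control rate, averaged over three repeats, 15 days after a spray-tower application. Plants at 2-leaf stage (2 weeks post-sowing) received 15–500 g/ha of compound formulated in acetone, Tween 80 and methyl oleate synergist (1.5 L/ha).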
The next test deals with Amaranthus retroflexus. An outline of the steps:
as §1

The subject of another test is Digitaria sanguinalis. An outline of the steps:
as §1

The next test deals with Echinochloa crusgali. An outline of the steps: as §1
The subject of a further test is Setaria viridis. The procedure, abridged: as §1

In the case of `CCC(=O)[S+]([O-])c1c(C(F)(F)F)ccc(C(=O)Nc2nnc(C)o2)c1F` (stereo not shown) [Compound 167], the “weeding effect in post-emergence stage, activity level (growth control rate), Abutilon theophrasti” value (shortened to “weeding effect … Abutilon theophrasti”) in the test with Abutilon theophrasti is given as 5 (Level 5: growth control rate is above 85%). Besides, the “weeding effect in post-emergence stage, activity level (growth control rate), Amaranthus retroflexus” value (shortened to “weeding effect … Amaranthus retroflexus”) with Amaranthus retroflexus is reported as 5 (Level 5: growth control rate is above 85%). Further, the “weeding effect in post-emergence stage, activity level (growth control rate), Digitaria sanguinalis” value (“weeding effect … Digitaria sanguinalis” for short) in the test on Digitaria sanguinalis was 5 (Level 5: growth control rate is above 85%). Also, the “weeding effect in post-emergence stage, activity level (growth control rate), Echinochloa crusgali” value (shortened to “weeding effect … Echinochloa crusgali”) in the test with Echinochloa crusgali is listed as 5 (Level 5: growth control rate is above 85%). Moreover, the “weeding effect in post-emergence stage, activity level (growth control rate), Setaria viridis” value (shortened to “weeding effect … Setaria viridis”) in the test with Setaria viridis is 5 (Level 5: growth control rate is above 85%).

On to `Cc1nnc(NC(=O)c2ccc(C(F)(F)F)c([S@@+]([O-])C(=O)CC(F)(F)F)c2F)o1` [Compound 169], for which the “weeding effect … Abutilon theophrasti” value in the test on Abutilon theophrasti was 5 (Level 5: growth control rate is above 85%). Also, the “weeding effect … Amaranthus retroflexus” value with Amaranthus retroflexus is reported as 5 (Level 5: growth control rate is above 85%). Further, the “weeding effect … Digitaria sanguinalis” value in the test on Digitaria sanguinalis is 5 (Level 5: growth control rate is above 85%). The “weeding effect … Echinochloa crusgali” value in the test on Echinochloa crusgali is 5 (Level 5: growth control rate is above 85%). In addition, in the test with Setaria viridis, the “weeding effect … Setaria viridis” value is listed as 5 (Level 5: growth control rate is above 85%).

Regarding `CSC[S@+]([O-])c1c(C(F)(F)F)ccc(C(=O)Nc2nnc(C)o2)c1F` [Compound 203], the “weeding effect … Abutilon theophrasti” value in the test with Abutilon theophrasti is 5 (Level 5: growth control rate is above 85%). Besides, in the test on Amaranthus retroflexus, the “weeding effect … Amaranthus retroflexus” value is reported as 5 (Level 5: growth control rate is above 85%). Also, the “weeding effect … Digitaria sanguinalis” value in the test with Digitaria sanguinalis is reported as 5 (Level 5: growth control rate is above 85%). Besides, the “weeding effect … Echinochloa crusgali” value in the test with Echinochloa crusgali is 5 (Level 5: growth control rate is above 85%). The “weeding effect … Setaria viridis” value with Setaria viridis was 5 (Level 5: growth control rate is above 85%).

Take `CSCC[S@@+]([O-])c1c(C(F)(F)F)ccc(C(=O)Nc2nnc(C)o2)c1F` [Compound 204]: the “weeding effect … Abutilon theophrasti” value in the test with Abutilon theophrasti is reported as 5 (Level 5: growth control rate is above 85%). For the same molecule, in the test with Amaranthus retroflexus, the “weeding effect … Amaranthus retroflexus” value was 5 (Level 5: growth control rate is above 85%). Also, the “weeding effect … Digitaria sanguinalis” value with Digitaria sanguinalis is listed as 5 (Level 5: growth control rate is above 85%). Further, the “weeding effect … Echinochloa crusgali” value with Echinochloa crusgali was 5 (Level 5: growth control rate is above 85%). The “weeding effect … Setaria viridis” value with Setaria viridis is reported as 5 (Level 5: growth control rate is above 85%).

`COc1c(C(=O)Nc2nnc(C)o2)ccc(C(F)(F)F)c1[S@+]([O-])C(C)C` [Compound 307]: the “weeding effect … Abutilon theophrasti” value in the test with Abutilon theophrasti was 5 (Level 5: growth control rate is above 85%). In the test with Amaranthus retroflexus, the “weeding effect … Amaranthus retroflexus” value is 5 (Level 5: growth control rate is above 85%). Moreover, in the test with Digitaria sanguinalis, the “weeding effect … Digitaria sanguinalis” value was 5 (Level 5: growth control rate is above 85%). Further, the “weeding effect … Echinochloa crusgali” value with Echinochloa crusgali is 5 (Level 5: growth control rate is above 85%). In addition, the “weeding effect … Setaria viridis” value in the test on Setaria viridis was 5 (Level 5: growth control rate is above 85%).

With `COc1c(C(=O)Nc2nnc(C)o2)ccc(C(F)(F)F)c1[S@+]([O-])CCC(C)(C)C` [Compound 309], in the test on Abutilon theophrasti, the “weeding effect … Abutilon theophrasti” value is reported as 5 (Level 5: growth control rate is above 85%). Further, in the test with Amaranthus retroflexus, the “weeding effect … Amaranthus retroflexus” value is on record as 5 (Level 5: growth control rate is above 85%). For the same molecule, in the test on Digitaria sanguinalis, the “weeding effect … Digitaria sanguinalis” value is 5 (Level 5: growth control rate is above 85%). The “weeding effect … Echinochloa crusgali” value with Echinochloa crusgali is 5 (Level 5: growth control rate is above 85%). Also, the “weeding effect … Setaria viridis” value in the test on Setaria viridis is listed as 5 (Level 5: growth control rate is above 85%).

For the molecule `C=CCC[S@@+]([O-])c1c(C(F)(F)F)ccc(C(=O)Nc2nnc(C)o2)c1OC` [Compound 312], the “weeding effect … Abutilon theophrasti” value in the test on Abutilon theophrasti was 5 (Level 5: growth control rate is above 85%). Also, the “weeding effect … Amaranthus retroflexus” value in the test with Amaranthus retroflexus is 5 (Level 5: growth control rate is above 85%). For the same molecule, the “weeding effect … Digitaria sanguinalis” value with Digitaria sanguinalis is recorded as 5 (Level 5: growth control rate is above 85%). For the same molecule, in the test on Echinochloa crusgali, the “weeding effect … Echinochloa crusgali” value is reported as 5 (Level 5: growth control rate is above 85%). Also, in the test on Setaria viridis, the “weeding effect … Setaria viridis” value is on record as 5 (Level 5: growth control rate is above 85%).

As to `CC=CC[S+]([O-])c1c(C(F)(F)F)ccc(C(=O)Nc2nnc(C)o2)c1OC` (stereo not shown) [Compound 313], the “weeding effect … Abutilon theophrasti” value with Abutilon theophrasti was 5 (Level 5: growth control rate is above 85%). Moreover, the “weeding effect … Amaranthus retroflexus” value in the test with Amaranthus retroflexus is on record as 5 (Level 5: growth control rate is above 85%). The “weeding effect … Digitaria sanguinalis” value in the test with Digitaria sanguinalis was 5 (Level 5: growth control rate is above 85%). Besides, the “weeding effect … Echinochloa crusgali” value with Echinochloa crusgali is 5 (Level 5: growth control rate is above 85%). In addition, in the test on Setaria viridis, the “weeding effect … Setaria viridis” value is given as 5 (Level 5: growth control rate is above 85%).

Regarding `C#CC[S@@+]([O-])c1c(C(F)(F)F)ccc(C(=O)Nc2nnc(C)o2)c1OC` [Compound 314], the “weeding effect … Abutilon theophrasti” value in the test on Abutilon theophrasti is on record as 5 (Level 5: growth control rate is above 85%). Further, in the test with Amaranthus retroflexus, the “weeding effect … Amaranthus retroflexus” value is 5 (Level 5: growth control rate is above 85%). Further, the “weeding effect … Digitaria sanguinalis” value with Digitaria sanguinalis is listed as 5 (Level 5: growth control rate is above 85%). In addition, the “weeding effect … Echinochloa crusgali” value in the test on Echinochloa crusgali is given as 5 (Level 5: growth control rate is above 85%). In addition, the “weeding effect … Setaria viridis” value with Setaria viridis is 5 (Level 5: growth control rate is above 85%).

Turning to `C#CCC[S@@+]([O-])c1c(C(F)(F)F)ccc(C(=O)Nc2nnc(C)o2)c1OC` [Compound 315], in the test on Abutilon theophrasti, the “weeding effect … Abutilon theophrasti” value is reported as 5 (Level 5: growth control rate is above 85%). The “weeding effect … Amaranthus retroflexus” value in the test with Amaranthus retroflexus is listed as 5 (Level 5: growth control rate is above 85%). Further, the “weeding effect … Digitaria sanguinalis” value with Digitaria sanguinalis is listed as 5 (Level 5: growth control rate is above 85%). Moreover, in the test on Echinochloa crusgali, the “weeding effect … Echinochloa crusgali” value was 5 (Level 5: growth control rate is above 85%). For the same molecule, the “weeding effect … Setaria viridis” value with Setaria viridis is reported as 5 (Level 5: growth control rate is above 85%).

For `CC#CC[S@@+]([O-])c1c(C(F)(F)F)ccc(C(=O)Nc2nnc(C)o2)c1OC` [Compound 316], the “weeding effect … Abutilon theophrasti” value in the test with Abutilon theophrasti was 5 (Level 5: growth control rate is above 85%). In the test on Amaranthus retroflexus, the “weeding effect … Amaranthus retroflexus” value is 5 (Level 5: growth control rate is above 85%). Besides, the “weeding effect … Digitaria sanguinalis” value with Digitaria sanguinalis is 5 (Level 5: growth control rate is above 85%). For the same molecule, in the test with Echinochloa crusgali, the “weeding effect … Echinochloa crusgali” value is on record as 5 (Level 5: growth control rate is above 85%). Further, the “weeding effect … Setaria viridis” value in the test on Setaria viridis is 5 (Level 5: growth control rate is above 85%).

Consider `COc1c(C(=O)Nc2nnc(C)o2)ccc(C(F)(F)F)c1[S@+]([O-])CCF` [Compound 319], for which the “weeding effect … Abutilon theophrasti” value in the test on Abutilon theophrasti was 5 (Level 5: growth control rate is above 85%). Also, the “weeding effect … Amaranthus retroflexus” value in the test with Amaranthus retroflexus is 5 (Level 5: growth control rate is above 85%). For the same molecule, in the test with Digitaria sanguinalis, the “weeding effect … Digitaria sanguinalis” value was 5 (Level 5: growth control rate is above 85%). For the same molecule, in the test with Echinochloa crusgali, the “weeding effect … Echinochloa crusgali” value was 5 (Level 5: growth control rate is above 85%). The “weeding effect … Setaria viridis” value in the test on Setaria viridis is listed as 5 (Level 5: growth control rate is above 85%).

Take `COc1c(C(=O)Nc2nnc(C)o2)ccc(C(F)(F)F)c1[S@+]([O-])CCCF` [Compound 320]: in the test on Abutilon theophrasti, the “weeding effect … Abutilon theophrasti” value is recorded as 5 (Level 5: growth control rate is above 85%). The “weeding effect … Amaranthus retroflexus” value in the test with Amaranthus retroflexus was 5 (Level 5: growth control rate is above 85%). Further, in the test with Digitaria sanguinalis, the “weeding effect … Digitaria sanguinalis” value is listed as 5 (Level 5: growth control rate is above 85%). For the same molecule, the “weeding effect … Echinochloa crusgali” value in the test with Echinochloa crusgali is on record as 5 (Level 5: growth control rate is above 85%). For the same molecule, the “weeding effect … Setaria viridis” value with Setaria viridis is recorded as 5 (Level 5: growth control rate is above 85%).

Consider `COc1c(C(=O)Nc2nnc(C)o2)ccc(C(F)(F)F)c1[S@@+]([O-])C(F)F` [Compound 322], for which the “weeding effect … Abutilon theophrasti” value in the test on Abutilon theophrasti is given as 5 (Level 5: growth control rate is above 85%). Besides, the “weeding effect … Amaranthus retroflexus” value in the test on Amaranthus retroflexus was 5 (Level 5: growth control rate is above 85%). For the same molecule, the “weeding effect … Digitaria sanguinalis” value in the test on Digitaria sanguinalis is 5 (Level 5: growth control rate is above 85%). The “weeding effect … Echinochloa crusgali” value with Echinochloa crusgali is given as 5 (Level 5: growth control rate is above 85%). Moreover, in the test with Setaria viridis, the “weeding effect … Setaria viridis” value is 5 (Level 5: growth control rate is above 85%).
